19 compounds from ChEMBL document CHEMBL1153508, “Evaluation of hydrogen bonds of ecdysteroids in the ligand-receptor interactions using a protein modeling system” (Bioorg Med Chem, 2009) can be followed below.

This experiment concerns the target T1, Ecdysone receptor (Drosophila melanogaster, UniProt P34021).
T1 sequence (P34021 whole entry): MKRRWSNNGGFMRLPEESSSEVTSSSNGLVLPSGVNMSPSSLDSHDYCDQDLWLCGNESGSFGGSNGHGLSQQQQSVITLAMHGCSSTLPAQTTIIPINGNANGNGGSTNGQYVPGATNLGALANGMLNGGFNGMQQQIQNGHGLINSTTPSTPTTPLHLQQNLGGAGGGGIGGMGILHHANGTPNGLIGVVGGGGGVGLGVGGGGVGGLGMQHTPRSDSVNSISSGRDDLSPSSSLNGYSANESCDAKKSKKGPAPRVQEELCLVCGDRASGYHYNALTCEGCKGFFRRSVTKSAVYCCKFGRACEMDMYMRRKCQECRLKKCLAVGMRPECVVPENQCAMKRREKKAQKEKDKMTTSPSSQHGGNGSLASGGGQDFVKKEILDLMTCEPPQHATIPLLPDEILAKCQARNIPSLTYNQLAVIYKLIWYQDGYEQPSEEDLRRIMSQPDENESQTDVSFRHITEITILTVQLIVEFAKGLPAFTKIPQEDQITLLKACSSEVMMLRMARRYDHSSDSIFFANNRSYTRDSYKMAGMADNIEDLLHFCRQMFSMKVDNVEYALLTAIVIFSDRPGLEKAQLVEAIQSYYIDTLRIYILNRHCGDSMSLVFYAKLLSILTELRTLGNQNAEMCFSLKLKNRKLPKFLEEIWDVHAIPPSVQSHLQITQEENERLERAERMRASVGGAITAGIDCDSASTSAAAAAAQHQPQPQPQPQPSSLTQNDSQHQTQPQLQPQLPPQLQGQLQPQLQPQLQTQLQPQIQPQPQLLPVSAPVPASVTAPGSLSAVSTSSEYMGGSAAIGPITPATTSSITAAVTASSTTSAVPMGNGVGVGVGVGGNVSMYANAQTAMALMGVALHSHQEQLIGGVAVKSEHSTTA
Description: Binding affinity to ecdysone receptor ligand binding domain in Drosophila melanogaster assessed as number of hydrogen bonds formed.

As usually defined, the IC50 is the concentration that gives 50% inhibition. Turning to `CC(C)CC[C@@H](O)[C@](C)(O)[C@H]1CC[C@H]2[C@@H]3CC=C4C[C@@H](O)CC[C@]4(C)[C@H]3CC[C@]12C`, the IC50 is 41700 nM.
For the compound `CC(C)CC[C@@H](O)[C@](C)(O)[C@H]1CC[C@H]2[C@@H]3CC[C@H]4CCCC[C@]4(C)[C@H]3CC[C@]12C`, the half-inhibitory concentration (IC50) is > 245000 nM.
Next, `CC(C)CC[C@@H](O)[C@](C)(O)[C@H]1CC[C@H]2[C@@H]3CC(=O)[C@H]4C[C@H](O)CC[C@]4(C)[C@H]3CC[C@]12C`: 794 nM; `CC(C)CC[C@@H](O)[C@](C)(O)[C@H]1CC[C@H]2[C@@H]3CC(=O)[C@@H]4C[C@H](O)CC[C@]4(C)[C@H]3CC[C@]12C`: 89100 nM; `C[C@@H]1C(=O)O[C@H](C)[C@H]1C[C@@H](O)[C@](C)(O)[C@H]1CC[C@@]2(O)C3=CC(=O)[C@@H]4C[C@@H](O)[C@@H](O)C[C@]4(C)[C@H]3CC[C@]12C` [CYASTERONE]: 61.7 nM.
On to `CC(C)CC[C@@H](O)[C@](C)(O)[C@H]1CC[C@H]2[C@@H]3C[C@@H](O)[C@H]4C[C@@H](O)CC[C@]4(C)[C@H]3CC[C@]12C`, for which the IC50 was > 245000 nM.
Next, `CC(C)CC[C@@H](O)[C@](C)(O)[C@H]1CC[C@H]2[C@@H]3CC[C@H]4C[C@@H](O)CC[C@]4(C)[C@H]3CC[C@]12C`: 41700 nM; `CC(C)CC[C@@H](O)[C@](C)(O)[C@H]1CC[C@H]2[C@@H]3CC(=O)[C@H]4C[C@@H](O)CC[C@]4(C)[C@H]3CC[C@]12C`: 9550 nM.
For `CC(C)CC[C@@H](O)[C@](C)(O)[C@H]1CC[C@H]2[C@@H]3CC=C4CCCC[C@]4(C)[C@H]3CC[C@]12C` the value was > 245000 nM.
For the compound `CC(C)(O)CC[C@@H](O)[C@](C)(O)[C@H]1CC[C@@]2(O)C3=CC(=O)[C@@H]4C[C@@H](O)[C@@H](O)C[C@]4(C)[C@H]3CC[C@]12C` [20-HYDROXYECDYSONE], the IC50 was 45.7 nM.
For `CC(C)CC[C@H](O)[C@](C)(O)[C@H]1CC[C@H]2[C@@H]3CC(=O)[C@H]4C[C@H](O)[C@H](O)C[C@]4(C)[C@H]3CC[C@]12C` the value was 38900 nM; for `CC(C)CC[C@@H](O)[C@](C)(O)[C@H]1CC[C@H]2[C@@H]3CC(=O)[C@@H]4C[C@@H](O)[C@@H](O)C[C@]4(C)[C@H]3CC[C@]12C`, 58.9 nM.
Turning to `CC(C)CC[C@@H](O)[C@](C)(O)[C@H]1CC[C@H]2[C@@H]3CC(=O)[C@H]4C[C@H](O)[C@H](O)C[C@]4(C)[C@H]3CC[C@]12C`, the IC50 was 324 nM.
For `CC(C)CC[C@@H](O)[C@](C)(O)[C@H]1CC[C@H]2[C@@H]3CC(=O)[C@H]4C[C@@H](O)[C@@H](O)C[C@]4(C)[C@H]3CC[C@]12C` the value was 14500 nM.
`C[C@H](C[C@@H](O)[C@](C)(O)[C@H]1CC[C@@]2(O)C3=CC(=O)[C@@H]4C[C@@H](O)[C@@H](O)C[C@]4(C)[C@H]3CC[C@]12C)C(C)(C)O` [MAKISTERONE A]: the IC50 was 112 nM.
As for `C[C@H]([C@H](O)CCC(C)(C)O)[C@H]1CC[C@@]2(O)C3=CC(=O)[C@@H]4C[C@@H](O)[C@@H](O)C[C@]4(C)[C@H]3CC[C@]12C` [ECDYSONE], the IC50 is 2570 nM.
Regarding `CC(CO)CC[C@@H](O)[C@](C)(O)[C@H]1CC[C@@]2(O)C3=CC(=O)[C@@H]4C[C@@H](O)[C@@H](O)C[C@]4(C)[C@H]3CC[C@]12C` (some centres undefined) [INOKOSTERONE], the IC50 was 91.2 nM.
As for `CC(C)CC[C@@H](O)[C@](C)(O)[C@H]1CC[C@@]2(O)C3=CC(=O)[C@@H]4C[C@@H](O)[C@@H](O)C[C@]4(C)[C@H]3CC[C@]12C` [PONASTERONE A], the IC50 is 1.29 nM.
Turning to `CC(C)CC[C@@H](O)[C@](C)(O)[C@H]1CC[C@H]2[C@@H]3C[C@H](O)[C@H]4C[C@@H](O)CC[C@]4(C)[C@H]3CC[C@]12C`, the half-inhibitory concentration (IC50) is > 245000 nM.
